Data reported in patent US12648944B2, “Masitinib for the treatment of castrate-resistant prostate cancer” (AB SCIENCE, priority 2021, dated 2026).

Tested on: first line metastatic castrate-resistant prostate cancer (mCRPC)
Assay: Phase 3 randomized double blind placebo-controlled study of masitinib in combination with docetaxel (+ prednisone), progression-free survival
Type: in vivo, human
Details: for Median progression-free survival (PFS): masitinib 6 mg/kg/day + docetaxel + prednisone; for Hazard Ratio / Risk Benefit: masitinib vs placebo, each + docetaxel + prednisone
Protocol: A prospective, multicenter, randomized, double blind, placebo-controlled, 2-parallel groups, phase 3 study was conducted to assess the efficacy and safety of masitinib in combination with docetaxel as compared to placebo in combination with docetaxel in first line metastatic castrate-resistant prostate cancer (mCRPC).
The objective of the study was to assess the efficacy and safety of masitinib in combination with docetaxel as compared to docetaxel in combination with placebo in first line metastatic castrate-resistant prostate cancer (mCRPC). Efficacy was assessed based on the progression-free survival (PFS), measured in months.
The patients recruited in the study consist of adult males suffering from prostate cancer who progressed to develop castration-resistant prostate cancer (CRPC) after castration treatment (reduction of androgens (e.g., testosterone, dihydrotestosterone (DHT)) by chemical or surgical means). These patients are considered to be patients in the first line metastatic castration-resistant prostate cancer (mCRPC).
The patients recruited in the study were randomized in two groups with a ratio 1:1: • Group 1: masitinib (6 mg/kg/day)+docetaxel (75 mg/m^2 6 cycles—8 or 10 cycles possible)+prednisone according to usual practice; • Group 2: placebo+docetaxel (75 mg/m^2 6 cycles—8 or 10 cycles possible)+prednisone according to usual practice.
Docetaxel was combined with prednisone as usual practice.
Patients were centrally randomized to one of the two treatment groups by IWRS (Interactive Web Response System) according to minimization method.
Inclusion criteria were: • Patient aged≥18 years old, with histologically or cytologically confirmed metastatic castrate-resistant prostate cancer (medical or surgical castration: androgens deprivation by GnRH agonist or antagonist or patient with surgical castration; hormonal castration confirmed biologically (testosterone<0.5 ng/ml) with one of the following criteria: • If surgical castration is done than there is no requirement to perform testosterone test. • Pre-treated with abiraterone with progressed disease documented, OR • With indication for initiating docetaxel administration (e.g., widespread visceral disease or rapidly progressive disease). • Patient with evidence of progressive metastatic disease. Disease progression at trial enrolment is based on progression in at least one variable as described in the Prostate Cancer Clinical Trials Working Group (PCWG2) definition of response and progression for disease manifestations in prostate cancer (Scher et al. J Clin Oncol. 2008; 26:1148-1159):
• Patient with ECOG≤1 • Patient with adequate organ function: […]

[1] = Halabi prognosis score H > 15 at baseline
[2] = Halabi prognosis score H > 16 at baseline
[3] = Halabi prognosis score H > 17 at baseline
[4] = Halabi prognosis score H > 18 at baseline
[5] = Halabi prognosis score H > 19 at baseline
[6] = Halabi prognosis score H > 20 at baseline
[7] = Halabi prognosis score H > 21 at baseline
[8] = Halabi prognosis score H > 22 at baseline
[9] = Halabi prognosis score H > 27 at baseline
[10] = Halabi prognosis score H > 33 at baseline
[11] = Halabi prognosis score H ≤ 15 at baseline
[12] = Halabi prognosis score H ≤ 16 at baseline
[13] = Halabi prognosis score H ≤ 17 at baseline
[14] = Halabi prognosis score H ≤ 18 at baseline
[15] = Halabi prognosis score H ≤ 19 at baseline
[16] = Halabi prognosis score H ≤ 20 at baseline
[17] = Halabi prognosis score H ≤ 21 at baseline
[18] = Halabi prognosis score H ≤ 22 at baseline
[19] = Halabi prognosis score H ≤ 27 at baseline
[20] = Halabi prognosis score H ≤ 33 at baseline
[21] = baseline ALP > 250 IU/L and H > 18
[22] = baseline ALP > 250 IU/L and H > 19
[23] = baseline ALP > 250 IU/L and H > 20
[24] = baseline ALP > 250 IU/L and H > 21
[25] = baseline ALP > 250 IU/L and H > 22
[26] = baseline ALP > 250 IU/L and H ≤ 20
[27] = baseline ALP > 250 IU/L and H ≤ 21
[28] = baseline ALP > 250 IU/L and H ≤ 22
[29] = baseline ALP equal to or lower than 100 IU/L and H equal to or lower than 18
[30] = baseline ALP equal to or lower than 150 IU/L and H equal to or lower than 18
[31] = baseline ALP equal to or lower than 200 IU/L and H equal to or lower than 18
[32] = baseline ALP ≤ 250 IU/L and H < 21
[33] = baseline ALP ≤ 250 IU/L and H < 22
[34] = baseline ALP ≤ 250 IU/L and H > 18
[35] = baseline ALP ≤ 250 IU/L and H > 19
[36] = baseline ALP ≤ 250 IU/L and H > 20
[37] = baseline ALP ≤ 250 IU/L and H > 21
[38] = baseline ALP ≤ 250 IU/L and H > 22
[39] = baseline ALP ≤ 250 IU/L and H ≤ 18
[40] = baseline ALP ≤ 250 IU/L and H ≤ 19
[41] = baseline ALP ≤ 250 IU/L and H ≤ 20

Cc1ccc(NC(=O)c2ccc(CN3CCN(C)CC3)cc2)cc1Nc1nc(-c2cccnc2)cs1 [MASITINIB, 4-(4-methylpiperazin-1-ylmethyl)-N-[4-methyl-3-(4-pyridin-3ylthiazol-2-ylamino)phenyl]benzamide]
Median progression-free survival (PFS) [1]: 5.5 months
Hazard Ratio [1]: 0.99
Risk Benefit [1]: 1%
Median progression-free survival (PFS) [2]: 5.5 months
Hazard Ratio [2]: 1.00
Risk Benefit [2]: 0%
Median progression-free survival (PFS) [3]: 5.5 months
Hazard Ratio [3]: 1.00
Risk Benefit [3]: 0%
Median progression-free survival (PFS) [4]: 5.5 months
Hazard Ratio [4]: 1.00
Risk Benefit [4]: 0%
Median progression-free survival (PFS) [5]: 5.4 months
Hazard Ratio [5]: 1.00
Risk Benefit [5]: 0%
Median progression-free survival (PFS) [6]: 4.9 months
Hazard Ratio [6]: 1.04
Risk Benefit [6]: −4%
Median progression-free survival (PFS) [7]: 4.9 months
Hazard Ratio [7]: 1.07
Risk Benefit [7]: −7%
Median progression-free survival (PFS) [8]: 4.9 months
Hazard Ratio [8]: 1.09
Risk Benefit [8]: −9%
Median progression-free survival (PFS) [9]: 4.8 months
Hazard Ratio [9]: 1.20
Risk Benefit [9]: −20%
Median progression-free survival (PFS) [10]: 4.1 months
Hazard Ratio [10]: 1.34
Risk Benefit [10]: −34%
Median progression-free survival (PFS) [11]: 15 months
Hazard Ratio [11]: 0.28
Risk Benefit [11]: 72%
Median progression-free survival (PFS) [12]: 9.0 months
Hazard Ratio [12]: 0.35
Risk Benefit [12]: 65%
Median progression-free survival (PFS) [13]: 7.0 months
Hazard Ratio [13]: 0.49
Risk Benefit [13]: 51%
Median progression-free survival (PFS) [14]: 7.0 months
Hazard Ratio [14]: 0.54
Risk Benefit [14]: 46%
Median progression-free survival (PFS) [15]: 6.9 months
Hazard Ratio [15]: 0.69
Risk Benefit [15]: 31%
Median progression-free survival (PFS) [16]: 7.0 months
Hazard Ratio [16]: 0.65
Risk Benefit [16]: 36%
Median progression-free survival (PFS) [17]: 7.0 months
Hazard Ratio [17]: 0.65
Risk Benefit [17]: 35%
Median progression-free survival (PFS) [18]: 6.9 months
Hazard Ratio [18]: 0.65
Risk Benefit [18]: 35%
Median progression-free survival (PFS) [19]: 6.5 months
Hazard Ratio [19]: 0.75
Risk Benefit [19]: 25%
Median progression-free survival (PFS) [20]: 6.4 months
Hazard Ratio [20]: 0.81
Risk Benefit [20]: 19%
Median progression-free survival (PFS) (baseline ALP > 100 IU/L): 5.4 months
Hazard Ratio (baseline ALP > 100 IU/L): 1.02
Median progression-free survival (PFS) (baseline ALP > 150 IU/L): 4.9 months
Hazard Ratio (baseline ALP > 150 IU/L): 1.14
Median progression-free survival (PFS) (baseline ALP > 200 IU/L): 4.4 months
Hazard Ratio (baseline ALP > 200 IU/L): 1.17
Median progression-free survival (PFS) [21]: 4.3 months
Hazard Ratio [21]: 1.19
Median progression-free survival (PFS) [22]: 4.2 months
Hazard Ratio [22]: 1.18
Median progression-free survival (PFS) [23]: 4.2 months
Hazard Ratio [23]: 1.19
Median progression-free survival (PFS) [24]: 4.2 months
Hazard Ratio [24]: 1.19
Median progression-free survival (PFS) [25]: 4.2 months
Hazard Ratio [25]: 1.20
Median progression-free survival (PFS) (baseline ALP > 250 IU/L and H ≤ 18): 3.4 months
Median progression-free survival (PFS) (baseline ALP > 250 IU/L and H ≤ 19): 9.2 months
Median progression-free survival (PFS) [26]: 13 months
Hazard Ratio [26]: 1.78
Median progression-free survival (PFS) [27]: 8.3 months
Hazard Ratio [27]: 0.99
Median progression-free survival (PFS) [28]: 8.3 months
Hazard Ratio [28]: 0.88
Median progression-free survival (PFS) (baseline ALP > 250 IU/L): 4.2 months
Hazard Ratio (baseline ALP > 250 IU/L): 1.20
Hazard Ratio [29]: 0.46
Risk Benefit [29]: 56%
Hazard Ratio [30]: 0.46
Risk Benefit [30]: 55%
Hazard Ratio [31]: about 0.5
Risk Benefit [31]: about 50%
Median progression-free survival (PFS) (baseline ALP ≤ 100 IU/L): 9.0 months
Hazard Ratio (baseline ALP ≤ 100 IU/L): 0.53
Risk Benefit (baseline ALP ≤ 100 IU/L): 47%
Risk Benefit (baseline ALP ≤ 100 IU/L, listed as masitinib): 47%
Median progression-free survival (PFS) (baseline ALP ≤ 150 IU/L): 6.9 months
Hazard Ratio (baseline ALP ≤ 150 IU/L): 0.63
Risk Benefit (baseline ALP ≤ 150 IU/L): 37%
Median progression-free survival (PFS) (baseline ALP ≤ 200 IU/L): 6.9 months
Hazard Ratio (baseline ALP ≤ 200 IU/L): 0.73
Risk Benefit (baseline ALP ≤ 200 IU/L): 27%
Median progression-free survival (PFS) [32]: 7.0 months
Hazard Ratio [32]: 0.62
Risk Benefit [32]: 38%
Median progression-free survival (PFS) [33]: 6.9 months
Hazard Ratio [33]: 0.63
Risk Benefit [33]: 37%
Median progression-free survival (PFS) [34]: 6.2 months
Hazard Ratio [34]: 0.87
Median progression-free survival (PFS) [35]: 6.1 months
Hazard Ratio [35]: 0.86
Median progression-free survival (PFS) [36]: 5.8 months
Hazard Ratio [36]: 0.90
Median progression-free survival (PFS) [37]: 5.8 months
Hazard Ratio [37]: 0.94
Median progression-free survival (PFS) [38]: 5.8 months
Hazard Ratio [38]: 0.97
Median progression-free survival (PFS) [39]: 7.7 months
Hazard Ratio [39]: 0.52
Risk Benefit [39]: 48%
Median progression-free survival (PFS) [40]: 6.9 months
Hazard Ratio [40]: 0.66
Risk Benefit [40]: 34%
Median progression-free survival (PFS) [41]: 7.0 months
Hazard Ratio [41]: 0.62
Risk Benefit [41]: 38%
Median progression-free survival (PFS) (baseline ALP ≤ 250 IU/L): 6.3 months
Hazard Ratio (baseline ALP ≤ 250 IU/L): 0.79
Risk Benefit (baseline ALP ≤ 250 IU/L): 21%
